The text below walks through data of ChEMBL document CHEMBL1127240, “Structure-activity relationships of taxol: synthesis and biological evaluation of C2 taxol analogs” (Bioorg Med Chem Lett, 1994).

One assay has as its system HCT-116. Kind of assay: Compound was tested for inhibition of proliferation of human colon cancer cell line (HCT116). The format is functional, cell-based.
The target of assay [1] is Tubulin alpha chain (Sus scrofa) (UniProt P02550). Kind of assay: Compound was tested for effective concentration for tubulin polymerization expressed as ratio of compound relative to taxol (EC0.01 at 5 uM). The format is functional.

pIC50: −log10 of the molar value.

Tubulin alpha chain (Sus scrofa), sequence (P02550 whole entry, looked up): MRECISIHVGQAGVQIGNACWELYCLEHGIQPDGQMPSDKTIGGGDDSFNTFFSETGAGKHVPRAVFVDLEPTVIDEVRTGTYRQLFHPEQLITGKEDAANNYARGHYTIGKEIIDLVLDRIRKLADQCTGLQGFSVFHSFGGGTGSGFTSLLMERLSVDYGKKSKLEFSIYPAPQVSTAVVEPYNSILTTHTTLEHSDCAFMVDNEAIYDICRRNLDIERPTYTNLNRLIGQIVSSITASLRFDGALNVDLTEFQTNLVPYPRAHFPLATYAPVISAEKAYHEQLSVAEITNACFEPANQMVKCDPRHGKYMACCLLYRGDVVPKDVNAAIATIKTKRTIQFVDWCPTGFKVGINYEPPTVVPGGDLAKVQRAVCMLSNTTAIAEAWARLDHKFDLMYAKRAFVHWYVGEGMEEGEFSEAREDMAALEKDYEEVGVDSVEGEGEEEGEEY

In the assay on HCT-116, `CC(=O)O[C@H]1C(=O)[C@@]2(C)[C@H]([C@H](OC(=O)c3ccccc3)[C@]3(O)C[C@H](OC(=O)[C@H](O)[C@@H](NC(=O)c4ccccc4)c4ccccc4)C(C)=C1C3(C)C)[C@]1(OC(C)=O)CO[C@@H]1C[C@@H]2O` [PACLITAXEL] showed a pIC50 of 8.70.
The molecule `CC(=O)O[C@H]1C(=O)[C@@]2(C)C([C@H](OC(=O)C3CCCCC3)[C@]3(O)C[C@H](OC(=O)[C@H](O)[C@@H](NC(=O)c4ccccc4)c4ccccc4)C(C)=C1C3(C)C)[C@]1(OC(C)=O)CO[C@@H]1C[C@@H]2O` (some centres not stated) gave a pIC50 in the assay on HCT-116 of less than 7.04. In assay [1], the Ratio was 130.
The like results for `COc1ccc(C(=O)O[C@H]2C3[C@](C)(C(=O)[C@H](OC(C)=O)C4=C(C)[C@@H](OC(=O)[C@H](O)[C@@H](NC(=O)c5ccccc5)c5ccccc5)C[C@]2(O)C4(C)C)[C@@H](O)C[C@H]2OC[C@@]32OC(C)=O)cc1` (some centres not stated) were, in that order, less than 7.06 and greater than 250.
For `CC(=O)O[C@H]1C(=O)[C@@]2(C)C([C@H](OC(=O)c3ccc([N+](=O)[O-])cc3)[C@]3(O)C[C@H](OC(=O)[C@H](O)[C@@H](NC(=O)c4ccccc4)c4ccccc4)C(C)=C1C3(C)C)[C@]1(OC(C)=O)CO[C@@H]1C[C@@H]2O` (some centres not stated), in that order: less than 7.07 and greater than 250.
